In patent US8940756B2, “Dihydronaphthyridines and related compounds useful as kinase inhibitors for the treatment of proliferative diseases” (Deciphera Pharmaceuticals, Inc., priority 2012, dated 2015):

Tests used:
[1] = target: T1, c-KIT kinase (Seq ID no. 1) (Homo sapiens, UniProt P10721); assay: c-KIT Kinase Assay (pyruvate kinase/lactate dehydrogenase coupled); type: biochemical; details: enzymatic assay, ATP 200 μM; read-out: KIT (wt)
T1 construct: GST (N); TEV cleavage site (N); purchased deCODE Biostructures
Description: In this assay, the oxidation of NADH (measured by decrease in absorbance at 340 nm) was continuously monitored spectrophotometrically. […] The absorption at 340 nm was monitored continuously for 2 hours at 30° C. on Synergy 2 (BioTeK). The reaction rate was calculated using the 0 to 1 h time frame. Percent inhibition was obtained by comparison of reaction rate with that of a control (i.e. with no test compound). IC50 values were calculated from a series of percent inhibition values determined at a range of inhibitor concentrations using software routines as implemented in the GraphPad Prism software package. The protein construct was prepared by deCODE Biostructures using procedures known in the art. The construct contains […] of cKit, an N-terminal tag, a GST-fusion sequence and a TEV cleavage site.

[2] = target: T2, c-KIT D816V kinase (Seq ID no. 4) (Homo sapiens, UniProt P10721, D816V); assay: c-KIT D816V kinase Assay; type: biochemical; details: enzymatic assay, ATP 200 uM
T2 construct: D816V c-KIT (residues T544-V976 with N-terminal GST fusion, 16 nM); purchased deCODE Biostructures
Description: (§1) In this assay, the oxidation of NADH (measured by decrease in absorbance at 340 nm) was continuously monitored spectrophotometrically. […] The inhibition reaction was started by mixing serial diluted test compound with the above reaction mixture. The absorption at 340 nm was monitored continuously for 5 hours at 30° C. on Synergy 2 plate reader (BioTech).
The protein construct was prepared by deCODE Biostructures using procedures known in the art. The construct contains residues T544-V976 of cKit, an N-terminal tag, a GST-fusion sequence and a TEV cleavage site. This construct is identical to Seq ID no. 1 except for the D816V mutation.

[3] = target: T3, c-KIT T670I kinase (Seq ID no. 6) (Homo sapiens, UniProt P10721, T670I); assay: c-KIT T670I Kinase Assay; type: biochemical; details: enzymatic assay, ATP 200 uM
T3 construct: GST (N); TEV cleavage site (N); purchased deCODE Biostructures
Description: as §1, with “(BioTech). […] The protein construct was prepared by deCODE Biostructures using procedures known in the art. The construct contains […] of cKit, an N-terminal tag, a GST-fusion sequence and a TEV cleavage site. This construct is identical to Seq ID no.” for “(BioTech).”

[4] = target: T4, c-KIT D816H kinase (Seq ID no. 3) (Homo sapiens, UniProt P10721, D816H); assay: c-KIT D816H Kinase Assay; type: biochemical; details: enzymatic assay, ATP 200 μM
T4 construct: GST (N); TEV cleavage site (N); purchased deCODE Biostructures
Description: In this assay, the oxidation of NADH (measured by decrease in absorbance at 340 nm) was continuously monitored spectrophotometrically. […] The inhibition reaction was started by mixing serial diluted test compound with the above reaction mixture. The absorption at 340 nm was monitored continuously for 6 hours at 30° C. on Synergy 2 plate reader (BioTech). […] The protein construct was prepared by deCODE Biostructures using procedures known in the art. The construct contains […] of cKit, an N-terminal tag, a GST-fusion sequence and a TEV cleavage site. This construct is identical to Seq ID no. 1 except for the D816H mutation.

[5] = target: Phospho-KIT (Tyr719) in GIST430 cells (Homo sapiens, UniProt P10721); assay: GIST430 KIT Western Blot; type: cell-based; details: 4 hours, read-out: pKIT suppression by western blot analysi GIST430
Description: (§2) GIST48, GIST430, and GIST882 cells were obtained from J. Fletcher (Brigham and Women's Hospital, Boston, Mass.). GIST T1 cells were obtained from B. Rubin (Cleveland Clinic, Cleveland, Ohio) and Professor Takahiro Taguchi (Kochi Medical School, Nankoku, Kochi, Japan). […] GIST430 cells were grown in Ham's F10 medium supplemented with 15% characterized fetal bovine serum (Invitrogen, Carlsbad, Calif.), 30 mg/L bovine pituitary extract (BD Biosciences, San Jose, Calif.), 0.5% Mito+ serum extender (BD Biosciences, San Jose, Calif.), 1 unit/mL penicillin G, 1 μg/ml streptomycin, and 0.29 mg/mL L-glutamine at 37° C., 5% CO2, 95% humidity. GIST T1 cells were grown in DMEM medium supplemented with 10% characterized fetal bovine serum (Invitrogen, Carlsbad, Calif.), 1 unit/mL penicillin G, 1 ng/ml streptomycin, and 0.29 mg/mL L-glutamine at 37° C., 5% CO2, and 95% humidity. Cells were allowed to expand until reaching 70-95% confluence at which point they were subcultured or harvested for assay use.
(§3) One hundred fifty thousand cells were added per well in a 24-well tissue-culture treated plate. Cells were then incubated overnight at 37° C., 5% CO2, 95% humidity. Medium was aspirated, cells were washed with PBS, and serum-free Ham's F10 medium was added. A serial dilution of test compound was added to plates containing cells and plates were incubated for 4 hours at 37° C., 5% CO2, 95% humidity. Cells were washed with PBS, then lysed. Cell lysates were separated by SDS-PAGE and transferred to PVDF. Phospho-KIT (Tyr719) was detected using an antibody from Cell Signaling Technology (Beverly, Mass.), ECL Plus detection reagent (GE Healthcare, Piscataway, N.J.) and a Molecular Devices Storm 840 phosphorimager in fluorescence mode. Blots were stripped and probed for total KIT using an antibody from Santa Cruz Biotech (Santa Cruz, Calif.). IC50 values were calculated using Prism software (Graphpad, San Diego, Calif.).

[6] = target: Phospho-KIT (Tyr719) in GIST48 cells (Homo sapiens, UniProt P10721); assay: GIST48 KIT Western Blot; type: cell-based; details: 4 hours, read-out: pKIT suppression by western blot analysi GIST48
Description: as §2
as §3, with “Two” for “One”, “RPMI1640” for “Ham's F10”

T1 sequence (P10721 with tags, fused parts or gaps): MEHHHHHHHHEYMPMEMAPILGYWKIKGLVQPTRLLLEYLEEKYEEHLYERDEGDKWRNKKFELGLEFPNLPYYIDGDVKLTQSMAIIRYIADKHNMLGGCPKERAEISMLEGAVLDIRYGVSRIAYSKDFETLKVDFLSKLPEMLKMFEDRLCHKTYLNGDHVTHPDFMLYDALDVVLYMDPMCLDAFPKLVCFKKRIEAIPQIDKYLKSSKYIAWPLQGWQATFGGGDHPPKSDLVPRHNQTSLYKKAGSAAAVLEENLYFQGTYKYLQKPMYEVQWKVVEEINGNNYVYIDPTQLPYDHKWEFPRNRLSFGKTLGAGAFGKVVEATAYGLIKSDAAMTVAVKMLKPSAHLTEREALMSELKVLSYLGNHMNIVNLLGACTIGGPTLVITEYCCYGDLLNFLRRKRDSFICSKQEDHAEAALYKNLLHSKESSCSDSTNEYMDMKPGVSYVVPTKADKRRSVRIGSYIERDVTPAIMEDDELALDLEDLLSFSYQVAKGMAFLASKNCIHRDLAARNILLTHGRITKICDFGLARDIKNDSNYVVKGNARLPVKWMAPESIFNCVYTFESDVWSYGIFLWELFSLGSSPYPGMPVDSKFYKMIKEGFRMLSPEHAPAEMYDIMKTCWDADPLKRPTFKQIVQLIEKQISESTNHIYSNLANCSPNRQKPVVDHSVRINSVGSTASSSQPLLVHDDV
T2 sequence (P10721 544-976 D816V): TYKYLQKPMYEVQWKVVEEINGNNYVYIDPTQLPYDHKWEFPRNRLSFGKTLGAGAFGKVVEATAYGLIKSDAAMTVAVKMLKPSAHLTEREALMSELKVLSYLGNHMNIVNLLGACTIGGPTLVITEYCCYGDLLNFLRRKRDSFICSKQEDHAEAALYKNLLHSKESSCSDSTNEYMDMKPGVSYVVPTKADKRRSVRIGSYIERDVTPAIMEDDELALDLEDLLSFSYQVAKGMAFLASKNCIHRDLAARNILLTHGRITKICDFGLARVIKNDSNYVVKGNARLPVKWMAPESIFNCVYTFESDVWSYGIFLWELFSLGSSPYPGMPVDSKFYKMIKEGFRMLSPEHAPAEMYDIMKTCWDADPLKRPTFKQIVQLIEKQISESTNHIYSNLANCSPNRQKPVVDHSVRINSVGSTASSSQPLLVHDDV
T3 sequence (P10721 544-976 T670I): as the sequence (P10721 544-976 D816V) above, with T127I, V273D counted along it
T4 sequence (P10721 544-976 D816H): as the sequence (P10721 544-976 D816V) above, with V273H counted along it
Chain of Phospho-KIT (Tyr719) in GIST430 cells (P10721 with tags, fused parts or gaps DEL560-576/V654A, form open): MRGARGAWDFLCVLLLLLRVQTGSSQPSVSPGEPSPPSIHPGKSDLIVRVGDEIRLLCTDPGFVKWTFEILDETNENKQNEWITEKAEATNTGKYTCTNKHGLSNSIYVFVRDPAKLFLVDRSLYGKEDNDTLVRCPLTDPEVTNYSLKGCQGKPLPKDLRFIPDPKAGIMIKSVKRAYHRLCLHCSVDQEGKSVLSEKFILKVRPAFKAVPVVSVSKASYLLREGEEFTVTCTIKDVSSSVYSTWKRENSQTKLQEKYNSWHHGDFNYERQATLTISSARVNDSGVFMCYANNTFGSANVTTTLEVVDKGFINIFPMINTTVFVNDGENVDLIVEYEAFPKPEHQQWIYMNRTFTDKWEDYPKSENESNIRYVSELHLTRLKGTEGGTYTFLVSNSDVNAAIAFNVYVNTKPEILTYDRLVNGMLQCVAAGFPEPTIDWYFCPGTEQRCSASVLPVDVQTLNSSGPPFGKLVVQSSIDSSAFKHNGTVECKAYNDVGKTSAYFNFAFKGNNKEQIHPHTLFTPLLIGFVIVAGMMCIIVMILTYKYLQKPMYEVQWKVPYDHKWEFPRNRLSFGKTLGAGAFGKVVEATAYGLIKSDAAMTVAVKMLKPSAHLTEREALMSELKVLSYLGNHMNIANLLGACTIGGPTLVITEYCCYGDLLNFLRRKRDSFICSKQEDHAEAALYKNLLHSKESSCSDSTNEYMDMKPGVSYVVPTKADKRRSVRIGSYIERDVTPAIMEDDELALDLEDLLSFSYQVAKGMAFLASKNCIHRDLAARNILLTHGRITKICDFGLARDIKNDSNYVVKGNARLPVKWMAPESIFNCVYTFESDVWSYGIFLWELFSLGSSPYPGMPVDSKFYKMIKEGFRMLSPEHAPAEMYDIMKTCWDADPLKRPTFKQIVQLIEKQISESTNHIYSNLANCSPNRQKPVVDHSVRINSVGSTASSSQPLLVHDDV
Chain of Phospho-KIT (Tyr719) in GIST48 cells (P10721 whole entry V560D/D820A, form open): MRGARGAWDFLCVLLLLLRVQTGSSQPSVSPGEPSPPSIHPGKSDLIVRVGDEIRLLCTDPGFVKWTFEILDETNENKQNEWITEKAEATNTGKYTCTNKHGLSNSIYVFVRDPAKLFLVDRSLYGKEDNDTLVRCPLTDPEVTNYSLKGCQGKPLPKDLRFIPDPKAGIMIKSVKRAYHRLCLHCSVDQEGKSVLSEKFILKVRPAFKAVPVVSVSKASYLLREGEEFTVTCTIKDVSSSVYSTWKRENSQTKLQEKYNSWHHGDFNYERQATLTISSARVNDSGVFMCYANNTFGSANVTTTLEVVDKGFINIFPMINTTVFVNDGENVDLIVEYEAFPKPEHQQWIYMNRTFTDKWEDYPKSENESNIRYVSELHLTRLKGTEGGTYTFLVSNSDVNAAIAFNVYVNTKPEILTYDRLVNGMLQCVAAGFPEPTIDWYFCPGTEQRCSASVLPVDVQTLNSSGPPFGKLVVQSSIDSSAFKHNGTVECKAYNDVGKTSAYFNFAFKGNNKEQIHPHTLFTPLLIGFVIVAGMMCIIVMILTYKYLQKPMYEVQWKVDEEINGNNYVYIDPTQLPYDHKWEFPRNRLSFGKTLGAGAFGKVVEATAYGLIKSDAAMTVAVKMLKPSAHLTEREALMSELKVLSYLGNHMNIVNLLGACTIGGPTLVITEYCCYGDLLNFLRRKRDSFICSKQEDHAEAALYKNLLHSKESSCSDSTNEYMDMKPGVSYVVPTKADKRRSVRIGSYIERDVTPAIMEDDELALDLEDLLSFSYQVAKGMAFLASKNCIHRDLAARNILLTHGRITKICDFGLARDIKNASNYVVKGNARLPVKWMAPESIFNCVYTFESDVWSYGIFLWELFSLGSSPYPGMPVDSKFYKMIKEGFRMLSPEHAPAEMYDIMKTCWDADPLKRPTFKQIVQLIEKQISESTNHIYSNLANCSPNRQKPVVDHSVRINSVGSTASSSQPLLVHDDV

SMILES | IC50 [1] [nM] | IC50 [2] [nM] | IC50 [3] [nM] | IC50 [4] [nM] | IC50 [5] [nM] | IC50 [6] [nM]
CCn1c(=O)c(-c2cc(NC(=O)Nc3ccccc3)c(F)cc2Cl)cc2cnc(NC3CCOCC3)cc21 [Example 42, 1-(4-chloro-5-(1-ethyl-2-oxo-7-(tetrahydro-2H-pyran-4-ylamino)-1,2-dihydro-1,6-naphthyridin-3-yl)-2-fluorophenyl)-3-phenylurea] | 10 to 100 | 10 to 100 | 100 to 1000 | – | – | –
CCn1c(=O)c(-c2cc(NC(=O)Nc3ccccc3)c(F)cc2Cl)cc2cnc(NC3CCN(C)CC3)cc21 [Example 46, 1-(4-chloro-5-(1-ethyl-7-(1-methylpiperidin-4-ylamino)-2-oxo-1,2-dihydro-1,6-naphthyridin-3-yl)-2-fluorophenyl)-3-phenylurea] | 10 to 100 | 100 to 1000 | > 1000 | – | – | –
CCn1c(=O)c(-c2cc(NC(=O)Nc3ccccc3)c(F)cc2Cl)cc2cnc(NC3CCOC3)cc21 (stereo not drawn) [Example 47, 1-(4-chloro-5-(1-ethyl-2-oxo-7-(THF-3-ylamino)-1,2-dihydro-1,6-naphthyridin-3-yl)-2-fluorophenyl)-3-phenylurea] | < 10 | 10 to 100 | > 1000 | – | – | –
CCn1c(=O)c(-c2cc(NC(=O)Nc3ccccc3)c(F)cc2Cl)cc2cnc(NCCS(C)(=O)=O)cc21 [Example 48, 1-(4-chloro-5-(1-ethyl-7-(2-(methylsulfonyl)ethylamino)-2-oxo-1,2-dihydro-1,6-naphthyridin-3-yl)-2-fluorophenyl)-3-phenylurea] | 10 to 100 | 100 to 1000 | > 1000 | – | – | –
CCn1c(=O)c(-c2cc(NC(=O)Nc3ccccc3)c(F)cc2Cl)cc2cnc(NC3CCN(C)C3)cc21 (stereo not drawn) [Example 49, 1-(4-chloro-5-(1-ethyl-7-(1-methylpyrrolidin-3-ylamino)-2-oxo-1,2-dihydro-1,6-naphthyridin-3-yl)-2-fluorophenyl)-3-phenylurea] | 10 to 100 | 100 to 1000 | 100 to 1000 | – | – | –
CCn1c(=O)c(-c2cc(NC(=O)Nc3ccccc3)c(F)cc2Br)cc2cnc(NCCS(C)(=O)=O)cc21 [Example 52, 1-(4-bromo-5-(1-ethyl-7-(2-(methylsulfonyl)ethylamino)-2-oxo-1,2-dihydro-1,6-naphthyridin-3-yl)-2-fluorophenyl)-3-phenylurea] | < 10 | – | – | 100 to 1000 | – | –
CCn1c(=O)c(-c2cc(NC(=O)Nc3ccccc3)c(F)cc2F)cc2cnc(NC(C)=O)cc21 [Example 66, 1-(5-(7-acetamido-1-ethyl-2-oxo-1,2-dihydro-1,6-naphthyridin-3-yl)-2,4-difluorophenyl)-3-phenylurea] | < 10 | 10 to 100 | 10 to 100 | – | 10 to 100 | 100 to 1000

More lines, now with the values ahead:

IC50 [1] [nM] | IC50 [2] [nM] | IC50 [3] [nM] | IC50 [4] [nM] | IC50 [5] [nM] | IC50 [6] [nM] | SMILES
< 10 | 100 to 1000 | 10 to 100 | 100 to 1000 | – | – | CCn1c(=O)c(-c2cc(NC(=O)Nc3ccccc3)c(F)cc2F)cc2cnc(NC(=O)CC#N)cc21 [Example 75, 2-cyano-N-(3-(2,4-difluoro-5-(3-phenylureido)phenyl)-1-ethyl-2-oxo-1,2-dihydro-1,6-naphthyridin-7-yl)acetamide]
< 10 | 10 to 100 | 100 to 1000 | – | – | – | CCn1c(=O)c(-c2cc(NC(=O)Nc3ccccc3)c(F)cc2C#N)cc2cnc(NC)cc21 [Example 76, 1-(4-cyano-5-(1-ethyl-7-(methylamino)-2-oxo-1,2-dihydro-1,6-naphthyridin-3-yl)-2-fluorophenyl)-3-phenylurea]
10 to 100 | 10 to 100 | 100 to 1000 | – | – | – | CCn1c(=O)c(-c2cc(NC(=O)Nc3ccccc3)c(F)cc2Cl)cc2cnc(NC(=O)[C@@H]3CCCN3)cc21 [Example 85, (S)—N-(3-(2-chloro-4-fluoro-5-(3-phenylureido)phenyl)-1-ethyl-2-oxo-1,2-dihydro-1,6-naphthyridin-7-yl)pyrrolidine-2-carboxamide]
< 10 | > 1000 | 10 to 100 | – | – | – | CCn1c(=O)c(-c2cc(NC(=O)Nc3ccc(F)c(CN(C)C)c3)c(F)cc2Cl)cc2cnc(NC)cc21 [Example 94, 1-(4-chloro-5-(1-ethyl-7-(methylamino)-2-oxo-1,2-dihydro-1,6-naphthyridin-3-yl)-2-fluorophenyl)-3-(3-((dimethylamino)methyl)-4-fluorophenyl)urea]
< 10 | > 1000 | 10 to 100 | 10 to 100 | – | – | CCn1c(=O)c(-c2cc(NC(=O)Nc3ccc(F)c(CN4CCCC4)c3)c(F)cc2Cl)cc2cnc(NC)cc21 [Example 97, 1-(4-chloro-5-(1-ethyl-7-(methylamino)-2-oxo-1,2-dihydro-1,6-naphthyridin-3-yl)-2-fluorophenyl)-3-(4-fluoro-3-(pyrrolidin-1-ylmethyl)phenyl)urea]
10 to 100 | > 1000 | 10 to 100 | – | – | – | CCn1c(=O)c(-c2cc(NC(=O)Nc3ccc(F)c(CN4CCOCC4)c3)c(F)cc2Cl)cc2cnc(NC=O)cc21 [Example 107, N-(3-(2-chloro-4-fluoro-5-(3-(4-fluoro-3-(morpholinomethyl)phenyl)ureido)phenyl)-1-ethyl-2-oxo-1,2-dihydro-1,6-naphthyridin-7-yl)formamide]
10 to 100 | 10 to 100 | 100 to 1000 | – | – | – | CCn1c(=O)c(-c2cc(NC(=O)Nc3ccccc3)c(F)cc2C)cc2cnc(Nc3ccc(C)nc3)cc21 [Example 111, 1-(5-(1-ethyl-7-((6-methylpyridin-3-yl)amino)-2-oxo-1,2-dihydro-1,6-naphthyridin-3-yl)-2-fluoro-4-methylphenyl)-3-phenylurea]
